From US11524966B1 (Valo Early Discovery, Inc., priority 2017, dated 2022) come the findings set out here.

Structures are written as SMILES.

The target in the test is T1, USP28 (USP28-5(1-1077)-TEV-6*His; LifeSensors) (Homo sapiens, UniProt Q96RU2).
T1 construct: construct USP28 (USP28-5(1-1077)-TEV-6*His; LifeSensors); TEV cleavage site (C); 6xHis (C); purchased LifeSensors
T1 sequence (Q96RU2 1-1077): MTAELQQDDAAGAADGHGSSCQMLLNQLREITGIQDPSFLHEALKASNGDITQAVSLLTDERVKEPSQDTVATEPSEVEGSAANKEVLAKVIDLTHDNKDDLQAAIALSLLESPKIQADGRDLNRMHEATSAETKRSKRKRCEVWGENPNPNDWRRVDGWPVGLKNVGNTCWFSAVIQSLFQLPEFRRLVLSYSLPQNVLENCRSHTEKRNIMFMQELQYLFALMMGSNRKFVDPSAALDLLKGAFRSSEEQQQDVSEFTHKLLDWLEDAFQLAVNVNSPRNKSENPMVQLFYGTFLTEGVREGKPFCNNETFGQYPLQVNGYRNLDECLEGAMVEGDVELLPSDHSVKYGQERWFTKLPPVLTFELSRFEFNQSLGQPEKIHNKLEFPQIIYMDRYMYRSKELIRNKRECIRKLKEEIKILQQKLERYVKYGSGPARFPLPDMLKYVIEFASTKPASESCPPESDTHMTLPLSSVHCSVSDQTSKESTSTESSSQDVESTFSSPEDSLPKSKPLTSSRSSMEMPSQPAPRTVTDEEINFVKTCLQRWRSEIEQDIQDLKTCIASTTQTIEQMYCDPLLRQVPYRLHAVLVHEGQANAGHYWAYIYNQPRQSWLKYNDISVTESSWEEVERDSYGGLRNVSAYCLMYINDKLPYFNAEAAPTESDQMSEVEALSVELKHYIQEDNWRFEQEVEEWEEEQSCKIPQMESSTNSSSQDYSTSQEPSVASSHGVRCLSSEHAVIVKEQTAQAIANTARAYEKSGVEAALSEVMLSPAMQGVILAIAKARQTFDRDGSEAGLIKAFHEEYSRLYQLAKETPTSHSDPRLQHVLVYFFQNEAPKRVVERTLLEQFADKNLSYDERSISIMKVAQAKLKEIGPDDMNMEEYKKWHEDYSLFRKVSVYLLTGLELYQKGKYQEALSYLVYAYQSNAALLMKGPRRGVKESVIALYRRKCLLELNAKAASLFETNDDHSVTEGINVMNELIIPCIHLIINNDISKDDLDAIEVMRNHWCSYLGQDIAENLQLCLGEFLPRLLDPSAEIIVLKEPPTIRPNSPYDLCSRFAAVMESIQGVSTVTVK
Description: Ubiquitin-Rhodamine 110 Assay for USP28 Activity, Example A-1(b). Format: biochemical. The following applies: Ub-Rh110 assay, Example A-1(b). In short, it runs like this: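 Single-point screening used 10 μM compound with 90 min room-temperature incubation; follow-up dose-responses (25 μM top, 3-fold) used 75 pM USP28 1-1077 construct, 30 min compound preincubation, 25 nM Ub-Rh110, 20 min reaction, citric acid quench. Rh110 fluorescence normalised to no-enzyme and DMSO controls; IC50 from 4-parameter logistic fit.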
For the compound `Cc1ccc2c(N)c(C(=O)N[C@H]3COc4cc(N5CCN[C@H](C)C5)ccc4C3)sc2n1` [Example 2-9, 3-amino-6-methyl-N-((R)-7-((R)-3-methylpiperazin-1-yl)chroman-3-yl)thieno[2,3-b]pyridine-2-carboxamide], the “USP28 A-1(b) IC50 range” value was “++ (0.2-2 μM)”.

`Cc1ccc2c(N)c(C(=O)N[C@H]3COc4cc(N5CCNCC56COC6)ccc4C3)sc2n1` [Example 2-10]: the “USP28 A-1(b) IC50 range” value is listed as “+++ (0.05-0.2 μM)”.

Turning to `O=C(N[C@H]1COc2cc(N3CC4CCC(C3)N4)ccc2C1)c1cnc2c(c1)C1(CCN2)CC1` [Example 2-24, N-((3R)-7-(3,8-diazabicyclo[3.2.1]octan-3-yl)chroman-3-yl)-2′,3′-dihydro-1′H-spiro[cyclopropane-1,4′-[1,8]naphthyridine]-6′-carboxamide], the “USP28 A-1(b) IC50 range” value is on record as “+ (>2 μM)”.

On to `Cc1ccc2c(N)c(C(=O)N[C@@H]3COc4cc(N5CCNCC5)c(F)cc4C3)sc2n1` [Example 1-36, (S)-3-amino-N-(6-fluoro-7-(piperazin-1-yl)chroman-3-yl)-6-methylthieno[2,3-b]pyridine-2-carboxamide], for which the “USP28 A-1(b) IC50 range” value is “+ (>2 μM)”.

Take `Cc1cc(C)c2c(N)c(C(=O)N[C@H]3COc4cc(N5CC6CNCC(C5)O6)ccc4C3)sc2n1` [Example 2-20, N-((3R)-7-(9-oxa-3,7-diazabicyclo[3.3.1]nonan-3-yl)chroman-3-yl)-3-amino-4,6-dimethylthieno[2,3-b]pyridine-2-carboxamide]: the “USP28 A-1(b) IC50 range” value is “+++ (0.05-0.2 μM)”.

Regarding `Cc1ccc2c(N)c(C(=O)N[C@H]3COc4cc(N5CC6CC(C5)N6)ccc4C3)sc2n1` [Example 2-2, N-((3R)-7-(3,6-diazabicyclo[3.1.1]heptan-3-yl)chroman-3-yl)-3-amino-6-methylthieno[2,3-b]pyridine-2-carboxamide], the “USP28 A-1(b) IC50 range” value was “+++ (0.05-0.2 μM)”.

Regarding `Cc1nc2sc(C(=O)N[C@H]3COc4cc(N5CC6CCC(C5)N6)cc(F)c4C3)c(N)c2s1` (single isomer, unassigned) [Example 1-39], the “USP28 A-1(b) IC50 range” value is listed as “++ (0.2-2 μM)”.

As for `Cc1cnc2c(N)c(C(=O)N[C@@H]3CCc4cc(N5CCNCC5)c(C)cc4C3)sc2n1` (single isomer, unassigned) [Example 2-35], the “USP28 A-1(b) IC50 range” value is on record as “+ (>2 μM)”.

In the case of `Cc1ccc2c(N)c(C(=O)N[C@@H]3COc4cc(N5CC6CC(C5)N6)ccc4C3)sc2n1` [Example 2-3, N-((3S)-7-(3,6-diazabicyclo[3.1.1]heptan-3-yl)chroman-3-yl)-3-amino-6-methylthieno[2,3-b]pyridine-2-carboxamide], the “USP28 A-1(b) IC50 range” value is reported as “+ (>2 μM)”.

Turning to `Cc1ccc2c(N)c(C(=O)N[C@H]3COc4cc(N5CCN[C@H](C)[C@H]5C)ccc4C3)sc2n1` (single isomer, unassigned) [Example 1-11], the “USP28 A-1(b) IC50 range” value is “++++ (0.001-0.05 μM)”.

In the case of `Cc1ccc2c(N)c(C(=O)N[C@@H]3COc4cc(N5CCN[C@@H](C)[C@@H]5C)ccc4C3)sc2n1` (single isomer, unassigned) [Example 1-14], the “USP28 A-1(b) IC50 range” value is “++ (0.2-2 μM)”.

As to `Cc1ccc2c(N)c(C(=O)N[C@H]3COc4cc(N5CC6CNCC(C5)C6(F)F)ccc4C3)sc2n1` [Example 2-1, 3-Amino-N-((3R)-7-(9,9-difluoro-3,7-diazabicyclo[3.3.1]nonan-3-yl)chroman-3-yl)-6-methylthieno[2,3-b]pyridine-2-carboxamide], the “USP28 A-1(b) IC50 range” value is reported as “++++ (0.001-0.05 μM)”.

Take `Cc1cc(C(F)(F)F)c2c(N)c(C(=O)N[C@H]3COc4cc(N5CC6CNCC(C5)C6(F)F)ccc4C3)sc2n1` [Example 2-22, 3-amino-N-((3R)-7-(9,9-difluoro-3,7-diazabicyclo[3.3.1]nonan-3-yl)chroman-3-yl)-6-methyl-4-(trifluoromethyl)thieno[2,3-b]pyridine-2-carboxamide]: the “USP28 A-1(b) IC50 range” value is recorded as “++++ (0.001-0.05 μM)”.

With `Cc1ccc2c(N)c(C(=O)N[C@@H]3COc4cc(N5CCNCC5)c(OC(F)(F)F)cc4C3)sc2n1` (single isomer, unassigned) [Example 1-32], the “USP28 A-1(b) IC50 range” value is reported as “++ (0.2-2 μM)”.

`Cc1cnc2c(N)c(C(=O)N[C@@H]3CCc4c(ccc(N5CCNCC5)c4C)C3)sc2n1` (single isomer, unassigned) [Example 2-37]: the “USP28 A-1(b) IC50 range” value was “+++ (0.05-0.2 μM)”.

Regarding `Cc1nc2sc(C(=O)N[C@@H]3COc4cc(N5CCNCC5)cc(F)c4C3)c(N)c2s1` (single isomer, unassigned) [Example 1-38], the “USP28 A-1(b) IC50 range” value is “++ (0.2-2 μM)”.

`Cc1cc(C(F)(F)F)c2c(N)c(C(=O)N[C@H]3COc4cc(N5CC6CC(C5)N6)ccc4C3)sc2n1` [Example 2-21]: the “USP28 A-1(b) IC50 range” value is on record as “++ (0.2-2 μM)”.

For `Cc1ccc2c(N)c(C(=O)N[C@H]3COc4cc(N5CCNC[C@@H]5C)ccc4C3)sc2n1` [Example 2-4, 3-amino-6-methyl-N-((R)-7-((S)-2-methylpiperazin-1-yl)chroman-3-yl)thieno[2,3-b]pyridine-2-carboxamide], the “USP28 A-1(b) IC50 range” value is listed as “++++ (0.001-0.05 μM)”.
